Reference: patent US8658660B2, “5-fluoro-4-imino-3,4-dihydropyrimidin-2-(1H)-ones derivatives” (Dow AgroSciences, LLC., priority 2011, dated 2014)

Legend:
[1] = system: Mycosphaerella graminicola; anamorph: Septoria tritici (SEPTTR); assay: Evaluation of fungicidal activity: leaf blotch of wheat (SEPTTR); format: in vivo, Septoria tritici on wheat plants (variety Yuma); settings: wheat plants, percent control vs untreated inoculated plants
Experimental: Evaluation of Fungicidal Activity: Leaf Blotch of Wheat (Mycosphaerella graminicola; anamorph: Septoria tritici; Bayer code […]) Wheat plants (variety Yuma) were grown from seed in a greenhouse in 50% mineral soil/50% soil-less Metro mix until the first leaf was fully emerged, with 7-10 seedlings per pot. These plants were inoculated with an aqueous spore suspension of Septoria tritici either prior to or after fungicide treatments. After inoculation the plants were kept in 100% relative humidity (one day in a dark dew chamber followed by two to three days in a lighted dew chamber) to permit spores to germinate and infect the leaf. The plants were then transferred to a greenhouse for disease to develop. The following table presents the activity of typical compounds of the present disclosure when evaluated in these experiments. The effectiveness of the test compounds in controlling disease was determined by assessing the severity of disease on treated plants, then converting the severity to percent control based on the level of disease on untreated, inoculated plants.

[2] = system: Venturia inaequalis (VENTIN); assay: Evaluation of fungicidal activity: apple scab (VENTIN); format: in vivo; settings: apple seedlings, percent control vs untreated inoculated plants
Experimental: Evaluation of Fungicidal Activity: Apple Scab (Venturia inaequalis; Bayer code […]) Apple seedlings (McIntosh or Golden Delicious) were grown in Metro mix and inoculated with a spore suspension containing 5×10^5 spore/ml. Plants were placed in a dew room for 24 hours with 100% relative humidity and then transferred to a greenhouse with a temperature of 18° C. for disease to develop. The following table presents the activity of typical compounds of the present disclosure when evaluated in these experiments. The effectiveness of the test compounds in controlling disease was determined by assessing the severity of disease on treated plants, then converting the severity to percent control based on the level of disease on untreated, inoculated plants.

Row | Structure (SMILES) | SEPTTR 100 PPM 1DP (One-Day Protectant activity, % disease control rating) [1] | SEPTTR 100 PPM 3DC (Three-Day Curative activity, % disease control rating) [1] | VENTIN 100 PPM 1DP (One-Day Protectant activity, % disease control rating) [2]
1 | N=c1c(F)c[nH]c(=O)n1Cc1cccs1 [Cmpd 2, 5-fluoro-4-imino-3-(thiophen-2-ylmethyl)-3,4-dihydropyrimidin-2(1H)-one] | B (51-75) | A (76-100) | –
2 | Cn1c(=O)[nH]cc(F)c1=N [Cmpd 1, 5-fluoro-4-imino-3-methyl-3,4-dihydropyrimidin-2(1H)-one] | A (76-100) | A (76-100) | B (51-75)
3 | [2H]C([2H])([2H])n1c(=O)[nH]cc(F)c1=N [Cmpd 3, 5-fluoro-4-imino-3-(trideuteriomethyl)-1H-pyrimidin-2-one] | D (0-25) | D (0-25) | –
